Measurements reported in patent US6251949A, “Oxime derivatives, hydrazone derivatives and use thereof” (Shionogi & Co., Ltd., priority 1996, dated 2001).

Key:
Assay type in all cases: in vivo
Pyricularia oryzae = settings: rice seedling, 6 days after inoculation
tachykinin receptor [1] = biological target: T1, tachykinin receptor (Cavia porcellus, UniProt P30547); test: Tachykinin receptor antagonistic effect: capsaicin-induced increase in blood vessel permeability, trachea; settings: guinea pig, iv, read-out: ED50 Guinea pig trachea
T1 construct: from tissue; host or cells: guinea pig trachea, in vivo
T1 sequence (P30547 whole entry): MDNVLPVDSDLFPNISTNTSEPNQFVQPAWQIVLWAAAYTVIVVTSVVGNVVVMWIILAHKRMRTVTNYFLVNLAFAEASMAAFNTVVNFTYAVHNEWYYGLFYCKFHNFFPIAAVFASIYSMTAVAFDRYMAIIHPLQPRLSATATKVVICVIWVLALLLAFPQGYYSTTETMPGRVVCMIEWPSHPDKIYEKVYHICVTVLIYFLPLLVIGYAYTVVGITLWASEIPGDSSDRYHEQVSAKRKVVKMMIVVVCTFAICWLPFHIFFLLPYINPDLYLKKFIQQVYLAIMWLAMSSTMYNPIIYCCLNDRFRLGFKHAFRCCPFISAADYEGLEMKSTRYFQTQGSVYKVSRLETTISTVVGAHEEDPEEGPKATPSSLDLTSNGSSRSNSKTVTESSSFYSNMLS
Procedure: (§1) The tachykinin receptor antagonistic effect of a compound according to the present invention was investigated by the method described below.
(§2) [Effect of compound on capsaicin-induced increase in blood vessel permeability]
(§3) 5 Minutes after giving Evans Blue (30 mg/kg, i.v.) to a guinea pig anesthetized with pentobarbital (30 mg/kg, i.p.), a test compound dissolved in […] was injected intravenously. After further 5 minutes, capsaicin (0.15 mg/kg, i.v.) was given to induce the plasma transudation. 5 Minutes after administration of capsaicin, the guinea pig was sacrificed to isolate the trachea and the urinary bladder. After extraction with formamide for 24 hours, the dye content in each tissue was quantified on the basis of the absorbance at 620 nm, and the amount of the dye transudated into the tissue was calculated from the calibration curve.
(§4) By the method described above, the amount of the compound required to obtain 50% suppression (ED50) was determined and represented in units (mg/kg).

tachykinin receptor [2] = biological target: T1, tachykinin receptor; test: Tachykinin receptor antagonistic effect: capsaicin-induced increase in blood vessel permeability, urinary bladder; settings: guinea pig, iv, read-out: ED50 Guinea pig urinary bladder
Procedure: as §1, §2, §3, §4

Row | Compound | Controlling effect on rice blight (Pyricularia oryzae) by foliage application at 500 ppm (% control) (Pyricularia oryzae) [%] | ED50 (tachykinin receptor [1]) [mg/kg] | ED50 (tachykinin receptor [2]) [mg/kg]
1 | O=C1OCc2c(Cl)c(Cl)c(Cl)c(Cl)c21 [Fthalide, reference compound] | 97 | – | –
2 | CON=C(C(=O)N1CCOCC1)C(C)=NOCc1ccccc1 [Compound W-176] | – | 0.145 | 0.075
3 | C=CCON=C(C)C(=NOCc1ccc(Cl)c(Cl)c1)C(=O)N1CCOCC1 [Compound W-96] | – | 0.04 | –
4 | C=CCON=C(C)C(=NOCc1ccccc1Cl)C(=O)N(C)C [Compound C-86] | 90 | – | –
5 | CON=C(C(=O)N1CCN(C)CC1)C(C)=NOCc1ccccc1Cl [Compound b-251] | – | 0.017 | 0.017
6 | C=CCON=C(C)C(=NOCc1ccc(OC)cc1Cl)C(=O)N(C)C [Compound C-95] | 90 | – | –
7 | C=CCON=C(C)C(=NOCc1ccccc1Cl)C(=O)N1CCC(NC(C)=O)CC1 [Compound M-86] | – | 0.085 | –
8 | C=CCON=C(C(=O)N1CCN(C)CC1)C(C)=NOCc1ccccc1 [b-180] | – | 0.054 | 0.087
9 | CON=C(C)C(=NOCc1ccccc1Cl)C(=O)N(C)C [Compound C-11] | 90 | – | –
10 | CON=C(C)C(=NOCc1ccccc1Cl)C(=O)N1CCC(NC(C)=O)CC1 [Compound M-11] | – | 0.024 | –
11 | C=CCON=C(C)C(=NOCc1ccc(Cl)c(Cl)c1)C(=O)N(C)C [Compound C-96] | 90 | – | –
